The source of these data is US7307166B1, “Oxpurine nucleosides and their congeners, and acyl, derivatives thereof, for improvement of hematopoiesis” (Wellstat Therapeutics Corporation, priority 1987, dated 2007).

Test [1] relates to Balb/C female mice. Briefly: Hematopoietic recovery after cyclophosphamide in mice (spleen weight, blood cell counts). The conditions noted are these: for recovery of blood cell counts: Ex 58: mice treated with cyclophosphamide, other nonionic surfactants; for total neutrophil counts: 2 μmoles/mouse. The format is in vivo, mouse.
In a further test the test system is FDCPmix cells. Briefly: FDCPmix cell proliferation in the presence of IL-3 (MTT assay). Type of test: cell-based. As for the experimental part:
The FDCPmix cell line was used as a suitable in vitro model for predicting the effects of hematopoietic factors on pluripotential stem cells. These cells can be maintained in an undifferentiated state in the presence of IL-3 or undergo multi-lineage development in the presence of specific hematopoietic growth factors.
This level of proliferation (100%) served as the control value. Inhibition of proliferation by test compounds was represented as a percent of control.
FDCPmix cells were plated at a density of 5×10^4 cells per well in 96-well plates (5×10^5/ml) using IMDM medium plus 10% fetal bovine serum. […] Test compounds were added at a decreasing concentrations ranging from 10 micrograms/ml down to 1 nanogram/ml. The test compounds included: 3′,5′-O—N^2-tripalmitoyl-2′-deoxyguanosine, 3′,5′-di-O-palmitoyl-2′-deoxy-guanosine, 3′,5′-O—N^2-trioctanoyl-2′-deoxyguanosine, 3′,5′-di-O-octanoyl-2′-deoxyguanosine, and 3′,5′-o-N^2-trioleyl-2′-deoxy-guanosine.

In test [2] the test system is Balb/C female mice. Briefly: Hematopoietic recovery after cyclophosphamide in mice (spleen weight, blood cell counts). The format is in vivo, mouse. The conditions noted are these: for spleen weight: Ex 38: day 7 after CP, guanosine 5, acyl derivatives 2.5 μmoles/mouse/day in 0.2% Tween 80 i.p. 6 days, Tween 80 0.2%. As for the experimental part:
Twenty-four hours later and each day thereafter for a total of 6 days, mice were given a 0.4 ml i.p. injection of either physiological saline (controls), guanine (5 μmoles/mouse/day), or guanosine (5 μmoles/mouse/day). On day 7 all 10 mice in each of the three groups were bled, and then sacrificed by cervical dislocation. Spleens were removed and weighed, and complete blood cell counts performed.
Twenty-four hours later and each day thereafter for a total of 6 days, mice were given a 0.4 ml i.p injection of either physiological saline (controls), Tween 80 (0.2%), guanosine (5 μmoles/mouse/day in 0.2% Tween 80), or 2.5 μmoles per mouse per day of one of the following acylated derivatives of guanosine in 0.2% Tween 80: triacetylguanosine, octanoylguanosine, lauroylguanosine, or palmitoylguanosine. On day 7 following CP administration all 10 animals from each of the 7 groups were bled, and then sacrificed by cervical dislocation. Spleens were removed and weighed, and complete blood counts performed.
Twenty-four hours later treatment was begun. Mice were given a 0.4 ml i.p. injection of either physiological saline (controls), Tween 80 (0.2%), or palmitoylguanosine (5 μmoles/mouse/day in 0.2% Tween 80). The timing of the treatments was varied within the groups. The control group was given saline on days 1-6. The mice receiving Tween 80 were treated either on days 1-4, 4-6 or 1-6. Palmitoylguanosine-treated mice were treated either on days 1-2, 1-4, 3-5, 4-6 or 1-6. If a group of mice received no Tween 80 or palmitoylguanosine on a given day, saline was administered by i.p. injection. Thus, there were 9 groups of 9 animals in all. On day 7 following CP administration all of the animals were bled and then sacrificed by cervical dislocation. Spleens were removed and weighed, and complete blood cell counts performed.
Twenty-four hours later and each day thereafter for a total of 6 days, mice were given a 0.4 ml i.p. injection of either physiological saline (controls), Tween 80 (0.5%), or one of three different doses of octanoylguanosine (0.5, 2.5, or 5 μmoles/mouse/day in 0.5% Tween 80). On day 7 following CP administration all 9 animals from each of the […] were bled and then sacrificed by cervical dislocation. Spleens were removed and weighed, and complete blood cell counts performed.
Twenty-four hours later and each day thereafter for a total of 6 days, mice were given a 0.4 ml i.p. injection of either physiological saline (controls), Tween 80 (0.5%), or octanoylguanosine (5.0 μmoles/mouse/day in 0.5% Tween 80). On day 7 following CP administration all 10 animals from each of the 3 groups were bled and then sacrificed by cervical dislocation. Spleens were removed, weighed, and fixed in 10% formalin for later histological examination. Complete blood cell counts were performed on the collected blood.
Twenty-four hours later and each day thereafter for a total of 6 days, mice were given a 0.4 ml i.p. injection of either physiological saline (controls), benzoylguanosine (2.5 μmoles/mouse/day in 0.2% Tween 80), or palmitoylguanosine (2.5 μmoles/mouse/day in 0.2% Tween 80). On days 7 and 10 following CP administration 8 animals from each of the 3 groups were bled and then were sacrificed by cervical dislocation. Spleens were removed and weighed, and complete blood cell counts performed.
Twenty four hours later and each day thereafter for a total of 4 or 6 days, mice were given a 0.4 ml i.p. injection of either physiological saline (controls), palmitoyldeoxyinosine (2.5 μmoles/mouse), or palmitoyl-xanthosine (2.5 μmoles/mouse). On days 5 and 7 following CP administration 6 of the 12 animals in each of the 3 groups were bled and then sacrificed by cervical dislocation. Spleens were removed and weighed, and complete blood cell counts performed.

Where [3] appears, read: Ex 51: day 5 after CP, 2 μmoles/mouse i.p. daily, vs Tween-80.
Where [4] appears, read: Dose 10 μg, 48 hours, IL-3 25 units/ml.
[5] abbreviates: Ex 47: day 7 after CP, 2.5 μmoles/mouse/day.
Where [6] appears, read: Table 8 (Ex 63): 7 days after CP.
[7] abbreviates: Ex 48: day 7 after CP, 2.5 μmoles/mouse.
Where [8] appears, read: Ex 45: day 7 after CP, dose-dependent, 0.5-5 μmoles/mouse/day.
The mark [9] stands for this setting: Ex 46: day 7 after CP, 5.0 μmoles/mouse/day.

Consider “octylphenol-ethylene oxide condensate [Nonidet P-40]”, for which the “recovery of blood cell counts” value in the test with Balb/C female mice [1] was “enhanced the recovery”.
Consider `CCCCCCCCCCCCCCCC(=O)O[C@H]1C[C@H](n2cnc3c(=O)[nH]c(N)nc32)O[C@@H]1CO` [3′-O-palmitoyldeoxyguanosine, 3′-O-Palmitoyl-2′-Deoxyguanosine], for which the total neutrophil counts entry with Balb/C female mice [1] (Ex 51: day 5 after CP) is on record as “significantly elevated”. Also, the spleen weight entry in the test on Balb/C female mice [1] (setting [3]) is recorded as “significantly elevated”.
`CCCCCCCC(=O)OC[C@H]1O[C@@H](n2cnc3c(=O)[nH]c(N)nc32)C[C@@H]1OC(=O)CCCCCCC` [DiOctdG, 3′,5′-di-O-octanoyl-2′-deoxyguanosine]: the “Cell proliferation (% of Control)” value with FDCPmix cells (Dose 10 ng) is 84 ± 2 % of Control; in the test with FDCPmix cells (Dose 39 ng) it was 86 ± 1 % of Control; with FDCPmix cells (Dose 156 ng), 84 ± 6 % of Control; in the test on FDCPmix cells (Dose 625 ng), 93 ± 1 % of Control; with FDCPmix cells (Dose 2.5 μg), 78 ± 2 % of Control; in the test with FDCPmix cells (setting [4]), 100 ± .3 % of Control.
As to Tween 20, the “recovery of blood cell counts” value in the test with Balb/C female mice [1] was “enhanced the recovery”.
Still for that read-out and setting: in the case of “polyoxyethylene-10-oleyl ether [Brij 96]” it was “enhanced the recovery”.
As to `CCCCCCCC(=O)Nc1nc2c(ncn2[C@H]2C[C@H](OC(=O)CCCCCCC)[C@@H](COC(=O)CCCCCCC)O2)c(=O)[nH]1` [TriOctdG, 3′,5′-O—N^2-trioctanoyl-2′-deoxyguanosine], the “Cell proliferation (% of Control)” value in the test with FDCPmix cells (Dose 10 ng) is on record as 87 ± 4 % of Control; with FDCPmix cells (Dose 39 ng), 85 ± 2 % of Control; in the test on FDCPmix cells (Dose 156 ng), 89 ± 6 % of Control; with FDCPmix cells (Dose 625 ng), 86 ± 2 % of Control; with FDCPmix cells (Dose 2.5 μg) it was 96 ± .1 % of Control; in the test with FDCPmix cells (setting [4]), 107 ± 1 % of Control.
Consider `CCCCCCCCCCCCCCCC(=O)OC[C@H]1O[C@@H](n2cnc3c(=O)[nH]cnc32)[C@H](O)[C@@H]1O` [Palmitoylinosine], for which the “Hematopoietic Recovery after cyclophosphamide” value with Balb/C female mice [1] (Ex 49 heading, 2.5 μmoles/mouse) is “Improves”.
With `Nc1nc2c(ncn2[C@@H]2O[C@H](COC(=O)c3ccccc3)[C@@H](O)[C@H]2O)c(=O)[nH]1`, in the test with Balb/C female mice [1] (setting [5]), the Neutrophils result is on record as “significantly elevated” and the spleen weight result is given as “significantly elevated”. Besides, the “total white blood cells” value with Balb/C female mice [1] (Ex 47: day 7 after CP, 2.5 μmoles/mouse/day in 0.2% Tween 80 i.p. 6 days) was “significantly elevated”. Moreover, the platelet number result in the test on Balb/C female mice [2] (Ex 47: day 10 after CP, 2.5 μmoles/mouse/day) is “significantly greater”.
`CCCCCCCCCCCCCCCCCC(=O)Nc1nc2c(ncn2[C@H]2C[C@H](OC(=O)CCCCCCCCCCCCCCCCC)[C@@H](COC(=O)CCCCCCCCCCCCCCCCC)O2)c(=O)[nH]1` [TriSdG, 3′,5′-O-N^2-tristearyl-2′-deoxyguanosine]: in the test with Balb/C female mice [1] (setting [6]), the Neutrophils is given as 5.4 ± .5 K/μl and the WBC is reported as 7.6 ± .4 K/μl. The Spleen with Balb/C female mice [1] (Table 8 (Ex 63): 7 days after CP, TriPdG 25 mg/kg, others molar equivalent, daily 5 days) was 85 ± 9 mg.
Regarding `CCCCCCCCCCCCCCCC(=O)OC[C@H]1O[C@@H](n2cnc3c(=O)[nH]c(=O)[nH]c32)[C@H](O)[C@@H]1O` [palmitoylxanthosine, Palmitoylxanthosine], the spleen weight entry in the test on Balb/C female mice [1] (setting [7]) was “significantly increased”. Further, in the test on Balb/C female mice [2] (setting [7]), the Neutrophils result is on record as “significantly increased” and the total leukocytes result is reported as “significantly increased”.
In the case of Tween 40, the “recovery of blood cell counts” value in the test on Balb/C female mice [1] is “enhanced the recovery”.
With `CCCCCCCC/C=C\CCCCCCCC(=O)Nc1nc2c(ncn2[C@H]2C[C@H](OC(=O)CCCCCCC/C=C\CCCCCCCC)[C@@H](COC(=O)CCCCCCC/C=C\CCCCCCCC)O2)c(=O)[nH]1` [TriOdG, 3′,5′-O-N^2-trioleyl-2′-deoxyguanosine], in the test with Balb/C female mice [1] (Ex 63: day 7 after CP, molar equivalent of 25 mg/kg TriPdG), the lymphocyte counts result was “increased”. In the test on Balb/C female mice [1] (setting [6]), this compound showed a Platelets of 741 ± 54 K/μl. For the same compound, the “Cell proliferation (% of Control)” value in the test with FDCPmix cells (Dose 10 ng) was 92 ± 5 % of Control; in the test with FDCPmix cells (Dose 39 ng), 91 ± 5 % of Control; in the test on FDCPmix cells (Dose 156 ng), 92 ± 5 % of Control; in the test with FDCPmix cells (Dose 625 ng), 98 ± 6 % of Control; in the test on FDCPmix cells (Dose 2.5 μg) it was 80 ± 2 % of Control; with FDCPmix cells (setting [4]), 110 ± 3 % of Control.
Take `CCCCCCCCCCCC(=O)OC[C@H]1O[C@@H](n2cnc3c(=O)[nH]c(N)nc32)[C@H](O)[C@@H]1O` [laurolyguanosine, Lauroylguanosine]: the spleen weight result in the test on Balb/C female mice [2] is listed as “significantly larger spleens”.
For the compound `CCCCCCCCCCCCCCCC(=O)OC[C@H]1O[C@@H](n2cnc3c(=O)[nH]c(NC(=O)C(C)C)nc32)C[C@@H]1O` [NibuPdG, N^2-isobutyryl-5′-O-palmitoyl-2′-deoxyguanosine], the total neutrophil counts entry in the test on Balb/C female mice [1] (Ex 51: day 5 after CP) is “significantly elevated”. Besides, in the test on Balb/C female mice [1] (setting [3]), the spleen weight result is recorded as “significantly elevated”.
Regarding Triton X-100, in the test on Balb/C female mice [1], the “recovery of blood cell counts” value was “enhanced the recovery”.
In the case of `CC(=O)OC[C@H]1O[C@@H](n2cnc3c(=O)[nH]c(N)nc32)[C@H](OC(C)=O)[C@@H]1OC(C)=O` [acetylguanosine, triacetylguanosine], the spleen weight entry in the test with Balb/C female mice [2] is “significantly larger spleens”.
Turning to `CCCCCCCCCCCCCCCC(=O)OC[C@H]1O[C@@H](n2c(N)nc3c(=O)[nH]c(N)nc32)[C@H](O)[C@@H]1O` [palmitoyl-8-aminoguanosine], in the test with Balb/C female mice [1] (Ex 59: days 5 and 7 after CP, 25 mg/kg/day), the spleen weight entry is listed as “significantly elevated”. Besides, the Neutrophils result in the test with Balb/C female mice [1] (Ex 59: days 5 and 7 after CP, 25 mg/kg/day in 0.2% Tween 80 i.p.) is recorded as “significantly elevated”.
Regarding `CCCCCCCC(=O)OC[C@H]1O[C@@H](n2cnc3c(=O)[nH]c(N)nc32)[C@H](O)[C@@H]1O`, the spleen size entry with Balb/C female mice [1] (Ex 45: day 7 after CP, 0.5, 2.5 or 5 μmoles/mouse/day in 0.5% Tween 80 i.p. 6 days) was “significantly larger”. Moreover, in the test on Balb/C female mice [1] (setting [8]), the “total number of leukocytes” value was “significantly increased”. Further, in the test on Balb/C female mice [1] (setting [9]), the Neutrophils entry was “significantly greater”; the “lymphopoiesis and myelopoiesis in the spleens (histology)” value is “much greater”. For the same compound, the spleen weights entry in the test on Balb/C female mice [1] (Ex 46: day 7 after CP, 5.0 μmoles/mouse/day in 0.5% Tween 80, vs saline or Tween 80) was “significantly greater”. Further, the neutrophil counts result in the test on Balb/C female mice [1] (Ex 58: 50 mg/kg in 0.2% Tween 80 vs same dose in 0.02% Tween 80) is given as “significantly higher”. Besides, in the test on Balb/C female mice [1] (Ex 58: day 7 after CP, 50 mg/kg/dose in 0.02% and 0.2% Tween 80, vs saline), the neutrophil counts result is listed as “significantly different from controls”. For the same compound, in the test on Balb/C female mice [2], the spleen weight result was “significantly larger spleens”. In the test on Balb/C female mice [2] (setting [8]), the “total number of neutrophils” value is given as “significantly increased”. Moreover, in the test on Balb/C female mice [2] (setting [9]), the “peripheral white blood cells (WBC)” value is given as “significantly greater”.
